This note sets out measurements from ChEMBL document CHEMBL1201862, “PubChem BioAssay data set” (2004).

The source made the active and inactive calls.

One assay addresses T1, Coagulation factor XII (Homo sapiens, UniProt P00748).
T1 sequence (P00748 whole entry): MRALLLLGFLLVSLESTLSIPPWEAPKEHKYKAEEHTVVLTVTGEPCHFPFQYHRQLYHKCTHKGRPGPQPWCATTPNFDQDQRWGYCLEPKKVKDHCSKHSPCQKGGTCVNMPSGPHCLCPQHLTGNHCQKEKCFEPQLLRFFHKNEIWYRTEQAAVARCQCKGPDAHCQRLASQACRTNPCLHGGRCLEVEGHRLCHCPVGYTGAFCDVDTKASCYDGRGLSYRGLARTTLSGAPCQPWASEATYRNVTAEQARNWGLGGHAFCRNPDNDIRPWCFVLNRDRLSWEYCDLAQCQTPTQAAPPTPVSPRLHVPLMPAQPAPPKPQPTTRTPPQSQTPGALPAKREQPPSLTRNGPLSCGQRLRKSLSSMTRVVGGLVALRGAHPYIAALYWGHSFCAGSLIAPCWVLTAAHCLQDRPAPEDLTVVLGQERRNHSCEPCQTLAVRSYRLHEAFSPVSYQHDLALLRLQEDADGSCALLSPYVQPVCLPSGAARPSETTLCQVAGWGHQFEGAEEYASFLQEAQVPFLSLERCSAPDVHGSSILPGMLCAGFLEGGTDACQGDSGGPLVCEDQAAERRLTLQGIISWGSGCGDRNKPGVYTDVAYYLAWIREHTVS
In kind it is functional.

The target in the next assay is T2, Bcl-2-related protein A1 (Mus musculus, UniProt Q07440).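 Also: confirmatory dose–response counterscreen on Bfl-1, used to check hits from a UBC13 polyubiquitin inhibitor campaign.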
T2 sequence (Q07440 whole entry): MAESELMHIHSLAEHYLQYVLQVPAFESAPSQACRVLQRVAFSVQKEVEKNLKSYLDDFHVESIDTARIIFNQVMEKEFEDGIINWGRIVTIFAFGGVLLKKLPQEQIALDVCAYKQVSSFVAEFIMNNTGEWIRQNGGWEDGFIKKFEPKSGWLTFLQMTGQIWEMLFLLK
In kind it is functional.

Assay [1] concerns the target T3, Ubiquitin-conjugating enzyme E2 N (Homo sapiens, UniProt P61088).
T3 sequence (P61088 whole entry): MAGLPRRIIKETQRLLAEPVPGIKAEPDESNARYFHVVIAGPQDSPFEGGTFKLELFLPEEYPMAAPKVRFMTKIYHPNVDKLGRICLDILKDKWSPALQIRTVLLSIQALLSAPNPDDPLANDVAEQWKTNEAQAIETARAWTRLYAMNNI
In kind it is functional.

For assay [2], the target named is T3, Ubiquitin-conjugating enzyme E2 N. In kind it is functional. This is another data set of the same source.
The next assay addresses Cytochrome P450 3A4 (Homo sapiens, UniProt P08684).
The test system of assay [3] is BJ. Briefly: cells. Format: functional, cell-based. To be noted: Homo sapiens.
For a further assay, the system named is INS1. Kind of assay: beta cell apoptosis inhibitors, cytokine rescue, dose response, luminescence, retest (AID 449756).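 Also: cell death triggered by IL-1 beta plus TNF-alpha plus IFN-gamma mixture; protective hits raise ATP signal compared with cytokine alone wells.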 As to conditions: Rattus norvegicus. Format: functional, cell-based.
Assay [4] is described as follows: Vero E6 cell cytotoxicity, dose response, cytotoxicity control for non-replicating M. tuberculosis project, secondary assay (AID 492998). Format: functional, VeroE6. As to conditions: Vero C1008.
The nature of assay [5]: HepG2 cell cytotoxicity, dose response, cytotoxicity control for non-replicating M. tuberculosis project (AID 489018). Format: functional. As to conditions: Mycobacterium tuberculosis.
Assay [6] addresses Heat shock protein HSP 90-alpha (Homo sapiens, UniProt P07900). Format: functional, organism-based.
Assay [7] can be described thus: growth suppression of beta-catenin-knockout colon cells, dose response, cell-based, HCT116, human colon tumor (AID 1045).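 Also: HCT116 colon tumor cells with beta catenin knocked out; cells exposed to compound for 60 hours.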 In kind it is functional.
Assay [8] can be described thus: inhibitors of SNCA 5'UTR-driven reporter translation, confirmation, H4 neuroglioma cells, luminescence (AID 1988). In kind it is functional, cell-based.
A short description of assay [9]: HepG2 cell cytotoxicity, dose response, cytotoxicity control for Shn3 inhibitor project, CellTiter-Glo, cherry-picked (AID 624134). In kind it is functional, cell-based. For orientation: Cellular ATP, detected with luciferase, serves as a proxy for viable cell number.
Assay [10] addresses T4, Heat shock factor protein 1 (Mus musculus, UniProt P38532).
T4 sequence (P38532 whole entry): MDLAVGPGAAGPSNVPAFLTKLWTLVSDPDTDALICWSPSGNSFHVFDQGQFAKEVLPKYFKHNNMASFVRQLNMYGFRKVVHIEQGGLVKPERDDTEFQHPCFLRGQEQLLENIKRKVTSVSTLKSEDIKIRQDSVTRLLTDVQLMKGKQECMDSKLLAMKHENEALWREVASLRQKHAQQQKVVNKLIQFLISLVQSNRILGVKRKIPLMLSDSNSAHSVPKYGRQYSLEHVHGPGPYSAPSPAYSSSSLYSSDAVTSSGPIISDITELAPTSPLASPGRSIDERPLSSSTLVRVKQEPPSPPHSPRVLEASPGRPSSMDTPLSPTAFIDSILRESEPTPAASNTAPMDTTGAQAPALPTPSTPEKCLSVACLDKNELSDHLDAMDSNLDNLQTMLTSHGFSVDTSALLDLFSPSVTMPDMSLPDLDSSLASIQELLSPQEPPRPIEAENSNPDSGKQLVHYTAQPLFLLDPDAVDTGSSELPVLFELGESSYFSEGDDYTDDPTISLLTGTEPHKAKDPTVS
Kind of assay: HSF1 potentiators in luciferase reporter cells, confirmation, cell-based, NIH3T3, luminescence, dose retest (AID 435004).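 Also: stress induced by proteasome inhibitor MG132 added 30 min after compound; luciferase reporter driven by HSF1 response element in NIH3T3 cells; actives raise luminescence as potentiators of the MG132 stress response.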 In kind it is functional.

The nature of a further assay: cells. In kind it is functional.
The nature of assay [11]: THP-1 cell cytotoxicity, dose response, cytotoxicity control for non-replicating M. tuberculosis project (AID 489025). In kind it is functional.
The nature of assay [12]: cytotoxicity toward DRD oncogenic fibroblasts, dose response, cell-based, non-viral oncogenic, luminescence (AID 1934). In kind it is functional. As to conditions: Homo sapiens.
Assay [13] in a line: growth suppression of PTEN-null colon cells, dose response, cell-based, HCT116 PTEN knockout (AID 1047).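 Also: HCT116 colon tumor cells with PTEN knocked out; cells exposed to compound for 60 hours before readout; potency for loss of cell viability measured by luminescence.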 In kind it is functional.
The test system of assay [14] is BJ. Kind of assay: cytotoxicity toward BJ-TERT fibroblasts, dose response, cell-based, RAS-independent, luminescence (AID 1933). In kind it is functional. As to conditions: Homo sapiens.
The next assay addresses Cytochrome P450 2D6 (Homo sapiens, UniProt P10635).
Assay [15] has as its system BJ. Briefly: cytotoxicity toward BJ-TERT-LT-ST fibroblasts, dose response, cell-based, RAS-independent, luminescence (AID 1935).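 Also: BJ fibroblasts immortalized with TERT plus LT and ST oncogenes.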 In kind it is functional. To be noted: Homo sapiens.
Assay [16] is described as follows: control 3'UTR Renilla luciferase suppression, dose response, counter-screen for Shn3 inhibitor project, cell-based, Clone20-Shn3RL, cherry-picked (AID 624133). In kind it is functional. A general note: A counterscreen serves to expose hits that act by an unwanted route or on another target.
Assay [17] is described as follows: Luminescence Cell-Based Dose Response HTS to Identify Inhibitors of 5'UTR Stem-Loop Driven Prion Protein mRNA Translation in H4 Neuroglioblastoma Cells. [Related pubchem assays: 1827 (Project Summary), 1813 (Primary HTS)]. In kind it is functional.
Assay [18] in a line: Shn3 3'UTR reporter inhibitors, dose response, cell-based, Clone20 osteoblasts, firefly luciferase, cherry-picked (AID 624132).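 Also: firefly luciferase luminescence from reporter carrying the Shn3 3'UTR in osteoblasts.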 Format: functional.
The test system of assay [19] is BJ. Briefly: cytotoxicity toward Ras-transformed BJeLR fibroblasts, dose response, cell-based, alamar blue fluorescence, cherrypicked samples (AID 2631).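 Also: confirmatory dose-response assay in RAS-dependent BJ fibroblasts engineered with TERT, LT and ST, with cytotoxicity read by fluorescence.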 Format: functional. To be noted: Homo sapiens. On the technique in general: Resazurin is reduced to fluorescent resorufin, in cell work by metabolically active cells.
Assay [20] in a line: inhibitors of firefly luciferase expression or activity, dose response, H4 neuroglioma cells, luminescence (AID 1990). Format: functional, cell-based.
Another assay addresses Large T antigen (Simian virus 40, UniProt P03070). In kind it is functional, Betapolyomavirus macacae.

The term IC50 denotes the concentration that gives 50% inhibition. Broadly, the AC50 is the concentration giving half of the maximal activity seen. For orientation: EC50 means the concentration at which the effect is half-maximal. The CC50 is the concentration giving 50% cytotoxicity.

Chain of Cytochrome P450 2D6 (P10635 whole entry): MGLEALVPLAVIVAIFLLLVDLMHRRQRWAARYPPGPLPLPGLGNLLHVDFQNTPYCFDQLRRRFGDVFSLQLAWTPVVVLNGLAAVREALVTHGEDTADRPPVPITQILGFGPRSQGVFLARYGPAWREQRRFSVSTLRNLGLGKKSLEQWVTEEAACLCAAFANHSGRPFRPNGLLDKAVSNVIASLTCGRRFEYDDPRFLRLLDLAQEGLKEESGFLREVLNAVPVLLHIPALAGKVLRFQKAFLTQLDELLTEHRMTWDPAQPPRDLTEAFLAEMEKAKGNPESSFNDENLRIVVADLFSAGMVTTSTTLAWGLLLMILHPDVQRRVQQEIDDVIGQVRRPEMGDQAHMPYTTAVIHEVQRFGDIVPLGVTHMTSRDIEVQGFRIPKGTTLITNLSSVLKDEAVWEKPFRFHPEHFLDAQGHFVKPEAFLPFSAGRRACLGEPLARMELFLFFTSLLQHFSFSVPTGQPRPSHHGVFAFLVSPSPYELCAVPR
Chain of Large T antigen (P03070 whole entry): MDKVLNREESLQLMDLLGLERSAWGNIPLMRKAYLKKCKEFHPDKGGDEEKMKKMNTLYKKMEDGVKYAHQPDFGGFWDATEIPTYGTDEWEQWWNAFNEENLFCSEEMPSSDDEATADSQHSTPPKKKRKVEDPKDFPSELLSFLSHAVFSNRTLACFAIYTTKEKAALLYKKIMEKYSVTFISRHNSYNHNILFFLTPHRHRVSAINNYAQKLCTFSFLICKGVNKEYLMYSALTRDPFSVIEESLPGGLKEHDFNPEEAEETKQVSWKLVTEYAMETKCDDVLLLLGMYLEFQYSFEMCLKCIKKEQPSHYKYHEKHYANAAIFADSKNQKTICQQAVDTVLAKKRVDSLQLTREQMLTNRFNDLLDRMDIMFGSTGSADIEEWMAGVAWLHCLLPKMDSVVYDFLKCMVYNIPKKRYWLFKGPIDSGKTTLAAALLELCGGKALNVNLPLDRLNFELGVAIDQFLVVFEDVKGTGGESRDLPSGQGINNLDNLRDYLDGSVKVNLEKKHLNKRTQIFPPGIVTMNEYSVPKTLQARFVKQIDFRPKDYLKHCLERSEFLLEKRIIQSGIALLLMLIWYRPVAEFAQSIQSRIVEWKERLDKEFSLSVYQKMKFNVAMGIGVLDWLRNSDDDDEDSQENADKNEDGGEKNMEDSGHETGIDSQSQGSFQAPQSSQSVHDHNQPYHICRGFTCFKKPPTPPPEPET
Chain of Cytochrome P450 3A4 (P08684 whole entry): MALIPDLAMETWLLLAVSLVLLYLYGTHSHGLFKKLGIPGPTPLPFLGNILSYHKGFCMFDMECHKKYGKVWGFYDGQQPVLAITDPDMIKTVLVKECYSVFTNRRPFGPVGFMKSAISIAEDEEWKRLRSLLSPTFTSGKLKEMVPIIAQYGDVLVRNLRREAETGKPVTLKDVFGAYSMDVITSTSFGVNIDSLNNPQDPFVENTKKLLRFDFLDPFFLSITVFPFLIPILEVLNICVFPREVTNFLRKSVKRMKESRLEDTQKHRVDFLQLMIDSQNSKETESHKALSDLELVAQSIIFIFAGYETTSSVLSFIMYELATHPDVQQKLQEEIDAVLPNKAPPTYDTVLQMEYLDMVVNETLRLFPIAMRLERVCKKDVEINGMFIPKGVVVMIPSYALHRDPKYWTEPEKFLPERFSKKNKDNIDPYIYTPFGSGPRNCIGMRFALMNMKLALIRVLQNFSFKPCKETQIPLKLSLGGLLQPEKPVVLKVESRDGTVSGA

Consider `COc1ccccc1CC(=O)NCc1csc(-c2cccs2)n1`, for which the IC50 on Coagulation factor XII was > 50 µM (inactive).

On to `Cc1sc2nc(C(C)Nc3ccccc3N3CCOCC3)[nH]c(=O)c2c1C` (centres undefined), for which the IC50 at Bcl-2-related protein A1 is > 20 µM (inactive); in assay [1] it was 9.08 µM (active); in [2], 16.5 µM (active).

On to `Cn1c(/C=C/c2ccc([N+](=O)[O-])o2)nc2ccccc2c1=O`, for which the AC50 is 25.1 µM (inconclusive) at Cytochrome P450 3A4; 2.55 µM (active) with INS1; 5 µM (active) in assay [6]; 10.6 µM (active) in assay [9]; 17.8 µM (inconclusive) at Cytochrome P450 2D6; 7 µM (active) in [16]. Moreover, in assay [18], the AC50 was 2.37 µM (active). For the same molecule, the concentration for a half-maximal effect (EC50) in the assay on BJ [3] was 3.51 µM (inconclusive); in assay [7], < 0.059 µM (active); in assay [8], > 120 µM (not active); in assay [10], > 260 µM (inconclusive); in [12] it was 3.02 µM (active); in assay [13], < 0.059 µM (active). The EC50 in the assay on BJ [14] is 4.06 µM (active); in the assay with BJ [15], 2.75 µM (inconclusive); in assay [17], > 120 µM (not active); in the assay on BJ [19] it was 1.35 µM (active); in assay [20], > 120 µM (not active). In addition, the CC50 in assay [4] was 6.22 µM (active); in assay [5], 2.67 µM (active); in assay [11] it was 1.44 µM (active). In addition, the IC50 in the assay “cells” was 0.78 µM (active).

As to `CCOC(=O)C[n+]1c(C)sc2ccc(OC)cc21`, the IC50 on Large T antigen was 22.1 µM (active); at Coagulation factor XII, > 50 µM (inactive). The AC50 at Cytochrome P450 2D6 is 12.6 µM (inconclusive).
